Earlier results on one compound are cited in patent US11497760B2, “Method for solubilizing poorly water-soluble dietary supplements and pharmaceutically active agents” (ATHENION AG, priority 2016, dated 2022).

One data set concerns the target P-glycoprotein (Homo sapiens, UniProt P08183).
Another data set addresses human CYP3A4 (Homo sapiens, UniProt P08684).

P-glycoprotein, sequence (P08183 whole entry): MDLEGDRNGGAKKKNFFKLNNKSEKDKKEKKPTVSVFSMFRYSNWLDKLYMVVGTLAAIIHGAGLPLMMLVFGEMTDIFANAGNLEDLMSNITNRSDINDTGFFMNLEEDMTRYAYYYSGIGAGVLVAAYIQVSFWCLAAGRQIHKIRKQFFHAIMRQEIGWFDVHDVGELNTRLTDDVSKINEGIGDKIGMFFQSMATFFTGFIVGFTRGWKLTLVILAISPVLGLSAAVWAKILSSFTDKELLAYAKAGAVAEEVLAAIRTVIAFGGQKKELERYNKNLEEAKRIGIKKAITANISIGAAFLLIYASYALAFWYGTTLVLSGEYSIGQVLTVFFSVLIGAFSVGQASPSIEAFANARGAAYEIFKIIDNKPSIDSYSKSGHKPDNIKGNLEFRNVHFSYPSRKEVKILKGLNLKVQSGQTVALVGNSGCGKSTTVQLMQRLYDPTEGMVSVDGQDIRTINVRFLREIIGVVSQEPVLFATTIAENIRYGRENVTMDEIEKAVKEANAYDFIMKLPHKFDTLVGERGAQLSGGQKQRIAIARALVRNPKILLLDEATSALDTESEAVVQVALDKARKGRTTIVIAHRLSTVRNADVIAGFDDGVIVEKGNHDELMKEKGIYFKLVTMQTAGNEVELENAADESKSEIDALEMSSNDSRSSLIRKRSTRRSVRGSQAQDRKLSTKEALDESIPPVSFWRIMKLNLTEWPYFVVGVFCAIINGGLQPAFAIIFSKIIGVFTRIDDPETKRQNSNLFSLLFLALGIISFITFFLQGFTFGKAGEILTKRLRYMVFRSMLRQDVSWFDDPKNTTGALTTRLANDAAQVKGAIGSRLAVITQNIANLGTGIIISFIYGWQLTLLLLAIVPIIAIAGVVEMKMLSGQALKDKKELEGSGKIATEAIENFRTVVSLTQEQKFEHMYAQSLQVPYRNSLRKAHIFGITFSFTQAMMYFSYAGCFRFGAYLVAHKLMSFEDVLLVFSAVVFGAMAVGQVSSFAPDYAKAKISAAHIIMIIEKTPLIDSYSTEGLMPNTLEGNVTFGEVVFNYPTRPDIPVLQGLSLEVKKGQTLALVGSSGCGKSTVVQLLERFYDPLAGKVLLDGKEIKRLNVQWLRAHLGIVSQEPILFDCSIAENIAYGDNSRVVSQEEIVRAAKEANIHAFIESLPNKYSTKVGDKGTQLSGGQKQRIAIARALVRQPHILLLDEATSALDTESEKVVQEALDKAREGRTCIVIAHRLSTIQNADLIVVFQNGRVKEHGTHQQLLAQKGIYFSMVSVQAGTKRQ
human CYP3A4, sequence (P08684 whole entry): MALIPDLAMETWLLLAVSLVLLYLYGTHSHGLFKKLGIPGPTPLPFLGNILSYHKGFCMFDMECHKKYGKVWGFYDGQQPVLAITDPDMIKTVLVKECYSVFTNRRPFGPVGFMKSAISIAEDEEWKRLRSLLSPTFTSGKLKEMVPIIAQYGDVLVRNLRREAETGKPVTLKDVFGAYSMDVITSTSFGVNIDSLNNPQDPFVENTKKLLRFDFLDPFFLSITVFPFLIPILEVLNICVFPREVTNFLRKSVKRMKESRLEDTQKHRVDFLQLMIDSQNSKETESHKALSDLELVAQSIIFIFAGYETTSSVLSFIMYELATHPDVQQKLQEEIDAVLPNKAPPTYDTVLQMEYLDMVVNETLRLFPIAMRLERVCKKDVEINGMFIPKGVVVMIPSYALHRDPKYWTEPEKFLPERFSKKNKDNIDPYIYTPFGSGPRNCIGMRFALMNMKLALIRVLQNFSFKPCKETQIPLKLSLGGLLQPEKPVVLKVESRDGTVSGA

As for `O=C(C=CC=Cc1ccc2c(c1)OCO2)N1CCCCC1` [Piperine, 1-[5-(1,3-benzodioxol-5-yl)-1-oxo-2,4-pentadienyl]piperidine], at P-glycoprotein, the “inhibition of P-glycoprotein” value is on record as “inhibit”. Further, the “inhibition of human CYP3A4” value on human CYP3A4 is recorded as “inhibit”.
